Laboratory results reported in US8551937B2, “Peptide having an extending action for half-life of object peptide in plasma” (priority 2008, dated 2013).
Where a SMILES comes first, the peptide text is derived from it.

Assay: Motilin immunoreactivity concentration in plasma, half-life after intravenous administration (Example 6)
Format: in vivo, rat
Details: for half-life: SD, rat, plasma, 10 nmol/kg, male rats, N = 3, read-out: T½ Mean Value; for disappearance half-time extending action in vivo compared with native motilin: rats
Description: The experiment was carried out using rats into which polyethylene tube (PE-50 manufactured by Clay Adams) was previously inserted into thigh artery under an anesthetized condition with Nembutal. As to a test system, male SD strain rats (Nippon Charles River) of 7 weeks age were used where one group comprised 3 rats. Human type motilin or a derivative thereof in a dose of 10 nmol/kg was administered into tail vein of the rat and the blood before the administration and until 60 minutes after the administration was collected by a polyethylene tube inserted into the thigh artery. To the collected blood were added EDTA (manufactured by Dojin Laboratories) and aprotinin (manufactured by Bayer) as a stabilizer and an anti-coagulant, respectively and the plasma was separated therefrom by centrifugal separation.

Compound	half-life	disappearance half-time extending action in vivo compared with native motilin
CC[C@H](C)[C@H](NC(=O)[C@@H]1CCCN1C(=O)[C@@H](NC(=O)[C@@H](N)Cc1ccccc1)C(C)C)C(=O)N[C@@H](Cc1ccccc1)C(=O)N[C@H](C(=O)N[C@@H](Cc1ccc(O)cc1)C(=O)NCC(=O)N[C@@H](CCC(=O)O)C(=O)N[C@@H](CC(C)C)C(=O)N[C@@H](CCC(N)=O)C(=O)N[C@@H](CCCNC(=N)N)C(=O)N[C@@H](CCCCN)C(=O)N[C@@H](CCC(=O)O)C(=O)N[C@@H](CO)C(=O)N[C@@H](CCCCN)C(=O)N[C@@H](CCCCN)C(=O)N1CCC[C@H]1C(=O)N1CCC[C@H]1C(=O)N[C@@H](C)C(=O)N[C@@H](CCCCN)C(=O)N[C@@H](CC(C)C)C(=O)N[C@@H](CCC(N)=O)C(=O)N1CCC[C@H]1C(=O)N[C@@H](CCCNC(=N)N)C(=O)O)[C@@H](C)O [Chimeric motilin (F)] (H-FVPIFTYGELQRKESKKPPAKLQPR-OH; N-terminus and C-terminus assumed)	9.37 min	–
CC[C@H](C)[C@H](NC(=O)[C@@H]1CCCN1C(=O)[C@@H](NC(=O)[C@@H](N)Cc1ccccc1)C(C)C)C(=O)N[C@@H](Cc1ccccc1)C(=O)N[C@H](C(=O)N[C@@H](Cc1ccc(O)cc1)C(=O)NCC(=O)N[C@@H](CCC(=O)O)C(=O)N[C@@H](CC(C)C)C(=O)N[C@@H](CCC(N)=O)C(=O)N[C@@H](CCCNC(=N)N)C(=O)N[C@@H](CO)C(=O)N[C@@H](CCCCN)C(=O)N[C@@H](CCCCN)C(=O)N1CCC[C@H]1C(=O)N1CCC[C@H]1C(=O)N[C@@H](C)C(=O)N[C@@H](CCCCN)C(=O)N[C@@H](CC(C)C)C(=O)N[C@@H](CCC(N)=O)C(=O)N1CCC[C@H]1C(=O)N[C@@H](CCCNC(=N)N)C(=O)O)[C@@H](C)O [Chimeric motilin (G)] (H-FVPIFTYGELQRSKKPPAKLQPR-OH; N-terminus and C-terminus assumed)	5.25 min	unable to be confirmed
CC[C@H](C)[C@H](NC(=O)[C@@H]1CCCN1C(=O)[C@@H](NC(=O)[C@@H](N)Cc1ccccc1)C(C)C)C(=O)N[C@@H](Cc1ccccc1)C(=O)N[C@H](C(=O)N[C@@H](Cc1ccc(O)cc1)C(=O)NCC(=O)N[C@@H](CCC(=O)O)C(=O)N[C@@H](CC(C)C)C(=O)N[C@@H](CCC(N)=O)C(=O)N[C@@H](CCCNC(=N)N)C(=O)N[C@H](C(=O)N[C@@H](CCC(N)=O)C(=O)N[C@@H](CCC(N)=O)C(=O)N[C@@H](CCCNC(=N)N)C(=O)N[C@@H](CCCCN)C(=O)N[C@@H](CCC(=O)O)C(=O)N[C@@H](CO)C(=O)N[C@@H](CCCCN)C(=O)N[C@@H](CCCCN)C(=O)N1CCC[C@H]1C(=O)N1CCC[C@H]1C(=O)N[C@@H](C)C(=O)N[C@@H](CCCCN)C(=O)N[C@@H](CC(C)C)C(=O)N[C@@H](CCC(N)=O)C(=O)O)C(C)C)[C@@H](C)O [Chimeric motilin (H)] (H-FVPIFTYGELQRVQQRKESKKPPAKLQ-OH; N-terminus and C-terminus assumed)	10.4 min	–
CC[C@H](C)[C@H](NC(=O)[C@@H]1CCCN1C(=O)[C@@H](NC(=O)[C@@H](N)Cc1ccccc1)C(C)C)C(=O)N[C@@H](Cc1ccccc1)C(=O)N[C@H](C(=O)N[C@@H](Cc1ccc(O)cc1)C(=O)NCC(=O)N[C@@H](CCC(=O)O)C(=O)N[C@@H](CC(C)C)C(=O)N[C@@H](CCC(N)=O)C(=O)N[C@@H](CCCNC(=N)N)C(=O)N[C@H](C(=O)N[C@@H](CCC(N)=O)C(=O)N[C@@H](CCC(N)=O)C(=O)N[C@@H](CCCNC(=N)N)C(=O)N[C@@H](CCCCN)C(=O)N[C@@H](CCC(=O)O)C(=O)N[C@@H](CO)C(=O)N[C@@H](CCCCN)C(=O)N[C@@H](CCCCN)C(=O)N1CCC[C@H]1C(=O)N1CCC[C@H]1C(=O)N[C@@H](C)C(=O)N[C@@H](CCCCN)C(=O)O)C(C)C)[C@@H](C)O [Chimeric motilin (I)] (H-FVPIFTYGELQRVQQRKESKKPPAK-OH; N-terminus and C-terminus assumed)	5.76 min	–
CC[C@H](C)[C@H](NC(=O)[C@@H]1CCCN1C(=O)[C@@H](NC(=O)[C@@H](N)Cc1ccccc1)C(C)C)C(=O)N[C@@H](Cc1ccccc1)C(=O)N[C@H](C(=O)N[C@@H](Cc1ccc(O)cc1)C(=O)NCC(=O)N[C@@H](CCC(=O)O)C(=O)N[C@@H](CC(C)C)C(=O)N[C@@H](CCC(N)=O)C(=O)N[C@@H](CCCNC(=N)N)C(=O)N[C@H](C(=O)N[C@@H](CCC(N)=O)C(=O)N[C@@H](CCC(N)=O)C(=O)N[C@@H](CCCNC(=N)N)C(=O)N[C@@H](CCCCN)C(=O)N[C@@H](CCC(=O)O)C(=O)N[C@@H](CO)C(=O)N[C@@H](CCCCN)C(=O)N[C@@H](CCCCN)C(=O)O)C(C)C)[C@@H](C)O [Chimeric motilin (K)] (H-FVPIFTYGELQRVQQRKESKK-OH; N-terminus and C-terminus assumed)	6.14 min	–

The next lines start with the values.

half-life	disappearance half-time extending action in vivo compared with native motilin	Compound
8.03 min	–	CC[C@H](C)[C@H](NC(=O)[C@@H]1CCCN1C(=O)[C@@H](NC(=O)[C@@H](N)Cc1ccccc1)C(C)C)C(=O)N[C@@H](Cc1ccccc1)C(=O)N[C@H](C(=O)N[C@@H](Cc1ccc(O)cc1)C(=O)NCC(=O)N[C@@H](CCC(=O)O)C(=O)N[C@@H](CC(C)C)C(=O)N[C@@H](CCC(N)=O)C(=O)N[C@@H](CCCNC(=N)N)C(=O)N[C@@H](CCC(N)=O)C(=O)N[C@@H](CCCNC(=N)N)C(=O)N[C@@H](CCCCN)C(=O)N[C@@H](CCC(=O)O)C(=O)N[C@@H](CO)C(=O)N[C@@H](CCCCN)C(=O)N[C@@H](CCCCN)C(=O)N1CCC[C@H]1C(=O)N1CCC[C@H]1C(=O)N[C@@H](C)C(=O)N[C@@H](CCCCN)C(=O)N[C@@H](CC(C)C)C(=O)N[C@@H](CCC(N)=O)C(=O)N1CCC[C@H]1C(=O)N[C@@H](CCCNC(=N)N)C(=O)O)[C@@H](C)O [Chimeric motilin (E)] (H-FVPIFTYGELQRQRKESKKPPAKLQPR-OH; N-terminus and C-terminus assumed)
6.34 min	–	CC[C@H](C)[C@H](NC(=O)[C@@H]1CCCN1C(=O)[C@@H](NC(=O)[C@@H](N)Cc1ccccc1)C(C)C)C(=O)N[C@@H](Cc1ccccc1)C(=O)N[C@H](C(=O)N[C@@H](Cc1ccc(O)cc1)C(=O)NCC(=O)N[C@@H](CCC(=O)O)C(=O)N[C@@H](CC(C)C)C(=O)N[C@@H](CCC(N)=O)C(=O)N[C@@H](CCCNC(=N)N)C(=O)N[C@H](C(=O)N[C@@H](CCC(N)=O)C(=O)N[C@@H](CCC(N)=O)C(=O)N[C@@H](CCCNC(=N)N)C(=O)N[C@@H](CCCCN)C(=O)N[C@@H](CCC(=O)O)C(=O)N[C@@H](CO)C(=O)N[C@@H](CCCCN)C(=O)N[C@@H](CCCCN)C(=O)N1CCC[C@H]1C(=O)N1CCC[C@H]1C(=O)O)C(C)C)[C@@H](C)O [Chimeric motilin (J)] (H-FVPIFTYGELQRVQQRKESKKPP-OH; N-terminus and C-terminus assumed)
4.89 min	unable to be confirmed	CC[C@H](C)[C@H](NC(=O)[C@@H]1CCCN1C(=O)[C@@H](NC(=O)[C@@H](N)Cc1ccccc1)C(C)C)C(=O)N[C@@H](Cc1ccccc1)C(=O)N[C@H](C(=O)N[C@@H](Cc1ccc(O)cc1)C(=O)NCC(=O)N[C@@H](CCC(=O)O)C(=O)N[C@@H](CC(C)C)C(=O)N[C@@H](CCC(N)=O)C(=O)N[C@@H](CCCNC(=N)N)C(=O)N[C@H](C(=O)N[C@@H](CCC(N)=O)C(=O)N[C@@H](CCC(N)=O)C(=O)N[C@@H](CCCNC(=N)N)C(=O)N[C@@H](CCCCN)C(=O)N[C@@H](CCC(=O)O)C(=O)N[C@@H](CO)C(=O)O)C(C)C)[C@@H](C)O [Chimeric motilin (L), FVPIFTYGELQRVQQRKES] (H-FVPIFTYGELQRVQQRKES-OH; N-terminus and C-terminus assumed)
